These results are taken from patent publication US20250188044A1 (HARBIN MEDISAN PHARMACEUTICAL CO., LTD., priority 2021, published 2025).

Like-named read-outs stand apart in the source and are kept apart here.

Series [1] is described as follows: Metabolic stability in human liver microsomes. It counts as in vitro ADME. The note with it: for half-life: human liver microsomes 0.75 mg/mL, NADPH, 0-60 min. Here is the method: A 500 μM solution of the compound in acetonitrile was prepared and diluted to obtain a 1.5 μM drug working solution with a 0.1 M potassium phosphate solution. The drug working solution was co-incubated with a human liver microsome working solution at a final concentration of 0.75 mg/mL and an NADPH solution (final concentration: 550 μM), and the incubation was terminated by adding an acetonitrile solution at 0 min, 15 min, 30 min, 45 min, and 60 min. The residual amount of the compound that remained in the system at each time point was detected by using LC/MS. The absolute value k of the slope was determined by plotting the natural logarithm of the percentage of the residual amount of the compound with the time, and the calculation was performed according to the formula: T1/2 (half-life)=ln2/k=0.693/k.
On the technique in general: Liver microsomes are vesicles of endoplasmic reticulum, rich in cytochrome P450 enzymes.

Series [2] addresses T1, PPARδ (Homo sapiens, UniProt Q03181).
T1 construct: expressed in transfected cells; host or cells: Cos-7
T1 sequence (Q03181 139-441 limits assumed): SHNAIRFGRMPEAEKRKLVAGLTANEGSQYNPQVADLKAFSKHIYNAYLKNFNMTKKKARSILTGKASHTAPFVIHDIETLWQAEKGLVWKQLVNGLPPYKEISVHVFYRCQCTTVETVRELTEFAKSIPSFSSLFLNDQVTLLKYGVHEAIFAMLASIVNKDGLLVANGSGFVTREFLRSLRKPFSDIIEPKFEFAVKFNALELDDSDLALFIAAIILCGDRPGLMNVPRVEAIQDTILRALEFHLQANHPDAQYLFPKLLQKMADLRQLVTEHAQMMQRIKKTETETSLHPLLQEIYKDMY
Kind of series: Gal4-PPARδ(LBD) reporter gene agonistic activity assay in Cos-7 cells. The note with it: for agonistic activity for PPARδ (EC50 level, in words): Cos-7 reporter assay. Type of series: cell-based. Here is the method: (§1) Cos-7 cells (African green monkey kidney fibroblasts, commonly used tool cells) were cultured in a 10 cm cell culture dish in a DMEM complete medium containing 10% fetal bovine serum. When the cells grew to a density of about 70%, the medium was replaced with a fresh medium for later transfection. […] The plasmid working solution was then added to the cell culture dish for cell transfection. […] Test compounds were prepared into appropriate test concentrations with a complete medium and then added to the 96-well plate. […] 10 μL of lysate was pipetted into a white opaque 384-well plate, and then 10 μL of reporter gene assay buffer (purchased from Shanghai Beyotime Biological Tech. Co., Ltd.) was added. The bioluminescence was detected by using a multimode microplate reader, and the corresponding half maximal effective concentration (EC50) value was calculated according to the detection value.

In series [3] the target is T2, PPARγ (Homo sapiens, UniProt P37231).
T2 construct: hPPARγ (281aa-554aa); expressed in transfected cells; host or cells: Cos-7
T2 sequence (P37231 232-505 limits assumed): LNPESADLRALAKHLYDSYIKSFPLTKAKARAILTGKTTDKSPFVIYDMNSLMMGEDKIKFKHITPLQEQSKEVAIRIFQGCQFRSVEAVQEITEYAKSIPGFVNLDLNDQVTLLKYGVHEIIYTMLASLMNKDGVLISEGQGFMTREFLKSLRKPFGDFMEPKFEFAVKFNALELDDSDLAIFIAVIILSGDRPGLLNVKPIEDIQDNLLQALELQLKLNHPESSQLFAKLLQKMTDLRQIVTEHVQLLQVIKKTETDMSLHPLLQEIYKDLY
Kind of series: Gal4-PPARγ(LBD) reporter gene agonistic activity assay in Cos-7 cells. Type of series: cell-based. Here is the method: as §1

The target of series [4] is T3, PPARα (Homo sapiens, UniProt Q07869).
T3 construct: hPPARα (279aa-580aa); expressed in transfected cells; host or cells: Cos-7
T3 sequence (Q07869 167-468 limits assumed): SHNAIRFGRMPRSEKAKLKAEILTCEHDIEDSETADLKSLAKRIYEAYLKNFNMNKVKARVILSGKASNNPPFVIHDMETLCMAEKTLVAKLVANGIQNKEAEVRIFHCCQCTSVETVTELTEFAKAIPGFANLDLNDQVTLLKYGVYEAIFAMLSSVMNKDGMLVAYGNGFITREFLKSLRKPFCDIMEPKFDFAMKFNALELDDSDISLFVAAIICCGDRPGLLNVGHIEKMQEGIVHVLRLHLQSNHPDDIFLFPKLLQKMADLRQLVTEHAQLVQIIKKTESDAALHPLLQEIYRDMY
Kind of series: Gal4-PPARα(LBD) reporter gene agonistic activity assay in Cos-7 cells. Type of series: cell-based. The note with it: for EC50: Cos-7 cells, Gal4-PPARα(LBD) reporter, 16 h, 100% = GW7647 10 nM; for agonistic activity for PPARα (EC50 level, in words): Cos-7 reporter assay. Here is the method: as §1
For orientation: In a reporter assay the amount or activity of a reporter protein is the signal.

Setting [5] is: Cos-7 cells, Gal4-PPARγ(LBD) reporter, 16 h, 100% = Rosiglitazone 1 μM.
[6] abbreviates: Cos-7 cells, Gal4-PPARδ(LBD) reporter, 16 h, 100% = GW501516 10 nM.

For orientation: half-life means the time needed for the level to fall by half in the phase considered. A high value points to slow decline. In the case of `Cc1cc(SCn2ncn(-c3ccc(C(F)(F)F)cc3)c2=O)ccc1OCC(=O)O` [Compound 16, 2-(2-Methyl-4-(((5-oxo-4-(4-(trifluoromethyl)phenyl)-4,5-dihydro-1H-1,2,4-triazol-1-yl)methyl)thio)phenoxy)acetic acid], in series [1], the “metabolic stability in human liver microsomes (in words)” value (“metabolic stability” for short) was “very good metabolic stability in human liver microsomes” and the half-life is > 120 min.

The EC50 is the concentration giving half of the maximal effect. Higher therefore signals lower potency in that assay. `Cc1cc(Cn2ncn(-c3ccc(Br)cc3)c2=O)cc(C)c1OC(C)(C)C(=O)O` [Compound 55, 2-(4-((4-(4-Bromophenyl)-5-oxo-4,5-dihydro-1H-1,2,4-triazol-1-yl)methyl)-2,6-dimethylphenoxy)-2-methylpropionic acid]: in series [2], the midpoint of the response, the EC50, lay at 22 nM and the “agonistic activity for PPARδ (EC50 level, in words)” value (“agonistic activity for PPARδ” below) was “at nanomolar levels”. Moreover, in series [1], the “metabolic stability” value is “very good metabolic stability in human liver microsomes” and the half-life is > 120 min. The compound further displayed a concentration giving a half-maximal response (EC50) in series [3] (setting [5]) of 1780 nM.

Regarding `Cc1ccc(-n2cnn(Cc3cc(C)c(OC(C)(C)C(=O)O)c(C)c3)c2=O)cc1` [Compound 65, 2-(2,6-Dimethyl-4-((5-oxo-4-(p-tolyl)-4,5-dihydro-1H-1,2,4-triazol-1-yl)methyl)phenoxy)-2-methylpropionic acid], the EC50 in series [2] (setting [6]) worked out at 248 nM; in series [4], 180 nM; in series [3] (setting [5]) it was 955 nM.

Consider `Cc1cc(Cn2ncn(-c3ccc(Cl)cc3)c2=O)cc(C)c1OC(C)(C)C(=O)O` [Compound 67, 2-(4-((4-(4-Chlorophenyl)-5-oxo-4,5-dihydro-1H-1,2,4-triazol-1-yl)methyl)-2,6-dimethylphenoxy)-2-methylpropionic acid], for which the figures for the EC50 in series [2] (setting [6]), in series [4] and in series [3] (setting [5]) were 47 nM, 167 nM and 1830 nM, respectively.

Regarding `Cc1cc(Cn2ncn(-c3ccc(OC(F)(F)F)cc3)c2=O)ccc1OC(C)(C)C(=O)O` [Compound 79, 2-Methyl-2-(2-methyl-4-((5-oxo-4-(4-(trifluoromethoxy)phenyl)-4,5-dihydro-1H-1,2,4-triazol-1-yl)methyl)phenoxy)propionic acid], the values for the EC50 in series [2] (setting [6]), in series [4] and in series [3] (setting [5]) were 620 nM, 341 nM and 1880 nM, respectively.

Take `CC(C)(Oc1ccc(Cn2ncn(-c3ccc(OC(F)(F)F)cc3)c2=O)cc1OC(F)(F)F)C(=O)O` [Compound 103, 2-Methyl-2-(4-((5-oxo-4-(4-(trifluoromethoxy)phenyl)-4,5-dihydro-1H-1,2,4-triazol-1-yl)methyl)-2-(trifluoromethoxy)phenoxy)propionic acid]: the EC50 was determined as 278 nM in series [2] (setting [6]), 215 nM in series [4] and 4680 nM in series [3] (setting [5]).

On to `CC(C)(Oc1ccc(Cn2ncn(-c3ccc(OC(F)(F)F)cc3)c2=O)cc1Cl)C(=O)O` [Compound 105], for which the concentration giving a half-maximal response (EC50) in series [2] (setting [6]) was found to be 323 nM; in series [4], 172 nM; in series [3] (setting [5]), 4920 nM.

Turning to `COc1ccc(-n2cnn(Cc3cc(C)c(OC(C)(C)C(=O)O)c(C)c3)c2=O)cc1` [Compound 107, 2-(4-((4-(4-Methoxyphenyl)-5-oxo-4,5-dihydro-1H-1,2,4-triazol-1-yl)methyl)-2,6-dimethylphenoxy)-2-methylpropionic acid], the results for the EC50 in series [2] (setting [6]), in series [4] and in series [3] (setting [5]) were 278 nM, 144 nM and 2020 nM, respectively.

As to `Cc1cc(Cn2ncn(-c3ccc(C(C)C)cc3)c2=O)cc(C)c1OC(C)(C)C(=O)O` [Compound 115, 2-(4-((4-(4-Isopropylphenyl)-5-oxo-4,5-dihydro-1H-1,2,4-triazol-1-yl)methyl)-2,6-dimethylphenoxy)-2-methylpropionic acid], the half-maximal effective concentration (EC50) in series [4] came out at 8 nM; in series [3] (setting [5]) it was 1760 nM.

With `CC(C)(Oc1ccc(Cn2ncn(-c3ccc(C(F)(F)F)cc3)c2=O)cc1Cl)C(=O)O` [Compound 125, 2-(2-Chloro-4-((5-oxo-4-(4-(trifluoromethyl)phenyl)-4,5-dihydro-1H-1,2,4-triazol-1-yl)methyl)phenoxy)-2-methylpropionic acid], the EC50 came out at 229 nM in series [2] (setting [6]), 162 nM in series [4] and 2780 nM in series [3] (setting [5]).

On to `CC(C)(Oc1c(Cl)cc(Cn2ncn(-c3ccc(C(F)(F)F)cc3)c2=O)cc1Cl)C(=O)O` [Compound 129, 2-(2,6-Dichloro-4-((5-oxo-4-(4-(trifluoromethyl)phenyl)-4,5-dihydro-1H-1,2,4-triazol-1-yl)methyl)phenoxy)-2-methylpropionic acid], for which, in series [1], the “metabolic stability” value is given as “very good metabolic stability in human liver microsomes” and the half-life is > 120 min. In addition, in series [4], the EC50 came to 23 nM and the “agonistic activity for PPARα (EC50 level, in words)” value is reported as “at nanomolar levels”. In series [3] (setting [5]), the half-maximal effective concentration (EC50) came to 4910 nM.

On to `CC(C)(Oc1ccc(Cn2ncn(-c3ccc(OC(F)(F)F)cc3)c2=O)cc1C(F)(F)F)C(=O)O` [Compound 157, 2-Methyl-2-(4-((5-oxo-4-(4-(trifluoromethoxy)phenyl)-4,5-dihydro-1H-1,2,4-triazol-1-yl)methyl)-2-(trifluoromethyl)phenoxy)propionic acid], for which the EC50 in series [4] was 273 nM; in series [3] (setting [5]) it was 1660 nM.

Turning to `Cc1cc(Cn2ncn(-c3ccc(C(F)(F)F)cc3)c2=O)cc(C(F)(F)F)c1OC(C)(C)C(=O)O` [Compound 165, 2-Methyl-2-(2-methyl-4-((5-oxo-4-(4-(trifluoromethyl)phenyl)-4,5-dihydro-1H-1,2,4-triazol-1-yl)methyl)-6-(trifluoromethyl)phenoxy)propionic acid], in series [2], the half-maximal effective concentration (EC50) was determined as 1 nM and the “agonistic activity for PPARδ” value is “at nanomolar levels”. In addition, in series [1], the “metabolic stability” value is “very good metabolic stability in human liver microsomes” and the half-life is > 120 min. In series [3] (setting [5]), a half-maximal response (EC50) required 812 nM.

As for `CCc1cc(Cn2ncn(-c3ccc(OC(F)(F)F)cc3)c2=O)cc(CC)c1OC(C)(C)C(=O)O` [Compound 189, 2-(2,6-Diethyl-4-((5-oxo-4-(4-(trifluoromethoxy)phenyl)-4,5-dihydro-1H-1,2,4-triazol-1-yl)methyl)phenoxy)-2-methylpropionic acid], the concentration for a half-maximal effect (EC50) in series [2] (setting [6]) turned out to be 42 nM; in series [4] it was 59 nM; in series [3], 2190 nM. In series [2], the “agonistic activity for PPARδ” value is listed as “at nanomolar levels”. Moreover, in series [4], the “agonistic activity for PPARα (EC50 level, in words)” value is given as “at nanomolar levels”.

In the case of `Cc1cc(SCn2ncn(-c3ccc(C(F)(F)F)cc3)c2=O)cc(C)c1OC(C)(C)C(=O)O` [Compound 198, 2-(2,6-Dimethyl-4-(((5-oxo-4-(4-(trifluoromethyl)phenyl)-4,5-dihydro-1H-1,2,4-triazol-1-yl)methyl)thio)phenoxy)-2-methylpropionic acid], the figures for the EC50 in series [4] and in series [3] (setting [5]) were 289 nM and 2850 nM, respectively.
